ChEMBL document CHEMBL1201862, “PubChem BioAssay data set” (2004)
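Protocol summary: plate cells (96-well), add compound at 5 concentrations, incubate 48 h, interpolate endpoints linearly. GI50 marks 50% less growth.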 Calls of active or inactive are those of the source. Rule as the data show it: active = GI50 up to about 1.1 µM and inactive = higher.

How the values were obtained:
Assay in all cases: NCI tumour cell line growth inhibition, 48 h
A549 = tested on: A549
ACHN = tested on: ACHN
K562 = tested on: K562
M14 = tested on: M14
MDA-N = tested on: MDA-N
MOLT-4 = tested on: MOLT-4
Malme-3M = tested on: Malme-3M
NCI-H23 = tested on: NCI-H23
NCI/ADR-RES = tested on: NCI/ADR-RES
OVCAR-8 = tested on: OVCAR-8
SF-268 = tested on: SF-268
SK-MEL-28 = tested on: SK-MEL-28
SK-OV-3 = tested on: SK-OV-3
SNB-19 = tested on: SNB-19
SW-620 = tested on: SW-620
U-251 = tested on: U-251
UACC-257 = tested on: UACC-257
UACC-62 = tested on: UACC-62
LOX IMVI = tested on: LOX IMVI
RXF 393 = tested on: RXF 393

Measured: GI50

O=C(NCCNCCO)N/N=C/c1ccc(Cl)cc1
inactive: A549 > 100 µM | ACHN > 100 µM | K562 > 100 µM | M14 > 100 µM | MDA-N > 100 µM | MOLT-4 > 100 µM | Malme-3M > 100 µM | NCI-H23 > 100 µM | NCI/ADR-RES > 100 µM | OVCAR-8 > 100 µM | SF-268 > 100 µM | SK-MEL-28 > 100 µM | SK-OV-3 > 100 µM | SNB-19 > 100 µM | SW-620 > 100 µM | U-251 > 100 µM | UACC-257 > 100 µM | UACC-62 > 100 µM

C=CCCC(=O)C(=[N+]=[N-])C(=O)CCC(=O)c1ccccc1
inactive: A549 > 10 µM | ACHN > 10 µM | K562 > 10 µM | LOX IMVI > 10 µM | M14 > 10 µM | MDA-N > 10 µM | MOLT-4 > 10 µM | Malme-3M > 10 µM | NCI-H23 > 10 µM | OVCAR-8 > 10 µM | RXF 393 > 10 µM | SF-268 > 10 µM | SK-MEL-28 > 10 µM | SK-OV-3 > 10 µM | SNB-19 > 10 µM | SW-620 > 10 µM | U-251 > 10 µM | UACC-257 > 10 µM | UACC-62 > 10 µM

Clc1sc(Cl)c2c1[C@@H](Cl)C[C@@H]2Br
inactive: A549 83.8 µM | ACHN > 100 µM | K562 34.2 µM | LOX IMVI 33.8 µM | M14 > 100 µM | MDA-N 84.3 µM | MOLT-4 18.6 µM | Malme-3M 22.8 µM | NCI-H23 61.4 µM | OVCAR-8 > 100 µM | RXF 393 78.3 µM | SF-268 > 100 µM | SK-MEL-28 > 100 µM | SK-OV-3 > 100 µM | SNB-19 > 100 µM | SW-620 45.6 µM | U-251 > 100 µM | UACC-257 70.1 µM | UACC-62 68.2 µM

COc1ccc(/C=C(/c2ccc(OC)cc2)c2c(Cl)cc(Cl)c(/C(=C\c3ccc(OC)cc3)c3ccc(OC)cc3)c2/N=N/c2ccccc2)cc1
inactive: A549 > 100 µM | ACHN 72.4 µM | K562 45.1 µM | LOX IMVI > 100 µM | M14 > 100 µM | MOLT-4 88.7 µM | Malme-3M > 100 µM | NCI-H23 > 100 µM | NCI/ADR-RES > 100 µM | OVCAR-8 > 100 µM | RXF 393 > 100 µM | SF-268 > 100 µM | SK-MEL-28 > 100 µM | SK-OV-3 > 100 µM | SNB-19 > 100 µM | SW-620 > 100 µM | U-251 66.4 µM | UACC-257 39.7 µM | UACC-62 > 100 µM

Cc1nc(C(N)=S)sc1C(=O)CC(=O)C(=O)Nc1ccccc1[N+](=O)[O-]
inactive: A549 > 100 µM | ACHN > 100 µM | K562 > 100 µM | LOX IMVI > 100 µM | M14 > 100 µM | MOLT-4 > 100 µM | Malme-3M > 100 µM | NCI-H23 > 100 µM | OVCAR-8 > 100 µM | RXF 393 > 100 µM | SF-268 > 100 µM | SK-MEL-28 > 100 µM | SK-OV-3 > 100 µM | SNB-19 > 100 µM | SW-620 > 100 µM | U-251 > 100 µM | UACC-257 > 100 µM | UACC-62 > 100 µM

O=C(CC(C(=O)c1cccs1)c1ccsc1)c1ccc(Cl)s1 (stereo not drawn)
inactive: A549 > 100 µM | ACHN 96.2 µM | K562 > 100 µM | LOX IMVI > 100 µM | M14 85.5 µM | MOLT-4 47.3 µM | Malme-3M > 100 µM | NCI-H23 > 100 µM | NCI/ADR-RES 12.1 µM | OVCAR-8 > 100 µM | SF-268 > 100 µM | SK-MEL-28 > 100 µM | SK-OV-3 > 100 µM | SNB-19 72.3 µM | SW-620 > 100 µM | U-251 > 100 µM | UACC-257 67.9 µM | UACC-62 99.3 µM

NC(=S)N/N=C1\CCCC1C(O)(C(F)(F)Cl)C(F)(F)Cl (stereo not drawn)
inactive: A549 > 10 µM | ACHN > 10 µM | K562 > 10 µM | LOX IMVI > 10 µM | M14 > 10 µM | MOLT-4 > 10 µM | Malme-3M > 10 µM | NCI-H23 > 10 µM | NCI/ADR-RES > 10 µM | OVCAR-8 > 10 µM | RXF 393 > 10 µM | SF-268 > 10 µM | SK-MEL-28 > 10 µM | SK-OV-3 > 10 µM | SNB-19 > 10 µM | SW-620 > 10 µM | U-251 > 10 µM | UACC-257 > 10 µM | UACC-62 8.63 µM

C=C1CCC[C@@H](C)C(O)[C@@H]2OC(=O)C(=C)[C@@H]2C[C@@H](OC(C)=O)[C@@]2(C)CC[C@@H]1O2 (stereo partly drawn)
inactive: A549 15.8 µM | ACHN 6.89 µM | K562 5.5 µM | M14 6.97 µM | MOLT-4 4.84 µM | NCI-H23 8.09 µM | NCI/ADR-RES 6.78 µM | OVCAR-8 7.19 µM | RXF 393 6.49 µM | SF-268 7.8 µM | SK-MEL-28 7.98 µM | SK-OV-3 10.8 µM | SNB-19 45.2 µM | SW-620 8.3 µM | U-251 9.57 µM | UACC-257 8.18 µM | UACC-62 4.53 µM

COC(=O)c1ccc(CS(=O)(=O)c2ccccc2)cc1
inactive: A549 67.8 µM | ACHN > 100 µM | K562 > 100 µM | LOX IMVI 74.3 µM | M14 49.8 µM | MOLT-4 > 100 µM | Malme-3M > 100 µM | NCI-H23 > 100 µM | OVCAR-8 > 100 µM | RXF 393 > 100 µM | SF-268 > 100 µM | SK-MEL-28 > 100 µM | SK-OV-3 > 100 µM | SNB-19 > 100 µM | SW-620 45.1 µM | U-251 > 100 µM | UACC-257 > 100 µM | UACC-62 99.8 µM

COC(=O)CCC(NC(=S)N/N=C/c1ccccn1)C(=O)OC (stereo not drawn)
inactive: A549 > 100 µM | ACHN > 100 µM | K562 > 100 µM | LOX IMVI > 100 µM | M14 > 100 µM | MOLT-4 > 100 µM | Malme-3M > 100 µM | NCI-H23 > 100 µM | OVCAR-8 > 100 µM | RXF 393 > 100 µM | SF-268 > 100 µM | SK-MEL-28 > 100 µM | SK-OV-3 > 100 µM | SNB-19 > 100 µM | SW-620 > 100 µM | U-251 > 100 µM | UACC-257 > 100 µM | UACC-62 > 100 µM

CC(=O)C(C)C(=O)N1C(=O)N(C)C2(C)N(C)C(=O)NC12C (stereo not drawn)
inactive: A549 > 100 µM | ACHN > 100 µM | M14 > 100 µM | MDA-N > 100 µM | Malme-3M > 100 µM | NCI-H23 > 100 µM | NCI/ADR-RES > 100 µM | SF-268 > 100 µM | SK-MEL-28 > 100 µM | SK-OV-3 > 100 µM | SNB-19 > 100 µM | U-251 > 100 µM | UACC-62 > 100 µM

CN1N=C2c3ccccc3CC[C@H]2C1c1ccccc1 (stereo partly drawn)
inactive: A549 35.6 µM | ACHN 44.3 µM | K562 > 100 µM | LOX IMVI 47.1 µM | M14 56.5 µM | MOLT-4 > 100 µM | Malme-3M 25.5 µM | NCI-H23 16.1 µM | OVCAR-8 41.1 µM | RXF 393 17 µM | SF-268 > 100 µM | SK-MEL-28 > 100 µM | SK-OV-3 2.56 µM | SNB-19 69.2 µM | SW-620 78.2 µM | U-251 53.5 µM | UACC-257 22.3 µM | UACC-62 32.3 µM

COc1cc2c(cc1O)[C@H](C)C(c1ccc(Cl)cc1)O2 (stereo partly drawn)
inactive: A549 24.9 µM | ACHN 14.1 µM | K562 18.3 µM | LOX IMVI 16 µM | M14 22.2 µM | MOLT-4 15.3 µM | Malme-3M 24.6 µM | NCI-H23 21 µM | OVCAR-8 > 10 µM | RXF 393 24.6 µM | SF-268 20.7 µM | SK-MEL-28 28.6 µM | SK-OV-3 23.3 µM | SNB-19 74.8 µM | SW-620 17.4 µM | U-251 19.1 µM | UACC-257 19.8 µM | UACC-62 21.2 µM

Brc1ccc(C[N+]23CN4CN(CN(C4)C2)C3)cc1
inactive: A549 40.4 µM | ACHN 44.6 µM | K562 25.4 µM | LOX IMVI 18.8 µM | M14 16.9 µM | MOLT-4 20.5 µM | Malme-3M 26.2 µM | NCI-H23 29.1 µM | OVCAR-8 28.3 µM | RXF 393 17 µM | SF-268 40.2 µM | SK-MEL-28 31.3 µM | SK-OV-3 > 100 µM | SNB-19 > 100 µM | SW-620 22.8 µM | U-251 69.3 µM | UACC-257 30.5 µM | UACC-62 14.8 µM

CC(C)=CCC[C@](C)(O[C@@H]1O[C@H](CO)[C@@H](O)[C@H](O)[C@H]1O)[C@H]1CC[C@]2(C)[C@@H]1[C@H](O)C[C@@H]1[C@@]3(C)CC[C@H](O)C(C)(C)[C@@H]3[C@@H](O[C@@H]3O[C@H](CO)[C@@H](O)[C@H](O)[C@H]3O)C[C@]12C [GINSENOSIDE RG1]
inactive: A549 > 100 µM | ACHN > 100 µM | K562 > 100 µM | LOX IMVI > 100 µM | M14 > 100 µM | MDA-N > 100 µM | Malme-3M > 100 µM | NCI-H23 > 100 µM | OVCAR-8 > 100 µM | RXF 393 > 100 µM | SF-268 > 100 µM | SK-MEL-28 > 100 µM | SK-OV-3 > 100 µM | SNB-19 > 100 µM | SW-620 > 100 µM | U-251 > 100 µM | UACC-257 > 100 µM | UACC-62 > 100 µM
